One assay has as its target T1, BRD4 BD1 (Homo sapiens, UniProt O60885).
T1 construct: made in house
Briefly: AlphaScreen binding assay, BRD4 Bromodomain 1. The gist of the method: (§1)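 Compound dilution series were mixed with His-tagged BRD4 bromodomain and biotinylated tetra-acetylated H4 (1-21) peptide at pH 7.3 (BD1 and peptide at 50 nM, BD2 and peptide at 100 nM). Donor and acceptor beads were then added, and plates were equilibrated at least 1 h before reading. IC50 values were fitted with a four-parameter logistic model.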

For another assay, the target named is T2, BRD4 BD2 (Homo sapiens, UniProt O60885).
T2 construct: made in house
Briefly: AlphaScreen binding assay, BRD4 Bromodomain 2. The gist of the method:
as §1
On the technique in general: Bead proximity is the source of the signal in Alpha formats.

In the case of `CC(=O)N1c2ccc(-c3cnn(CCS(C)(=O)=O)c3)cc2N(C(=O)C2CC2)CC1C` (centres unmarked) [Example I-344], the concentration for half-maximal inhibition (IC50) (in general, the concentration that inhibits the measured activity by half) is 1 to 10 µM at BRD4 BD1 and 0.05 to 0.5 µM at BRD4 BD2.

Regarding `C[C@H]1CN(C(=O)c2ccco2)c2cc(-c3ccc(S(C)(=O)=O)cc3)ccc2N1C(N)=O` [Example I-987], the results for the IC50 at BRD4 BD1 and on BRD4 BD2 were > 10 µM and > 0.5 µM, respectively.

Regarding `CC(=O)N1c2ccccc2N(C(=O)c2ccc3ncsc3c2)C[C@@H]1C` [Example I-724], the concentration for half-maximal inhibition (IC50) on BRD4 BD1 was > 10 µM; at BRD4 BD2, > 0.5 µM.

Consider `CC(=O)N1c2ccc(-c3ccccn3)cc2N(C(=O)c2ccco2)C[C@@H]1C` [Example I-381], for which the IC50 at BRD4 BD1 lay in the range of 1 to 10 µM; on BRD4 BD2 it was 0.05 to 0.5 µM.

Take `CC(=O)N1c2ccc(-c3cnn(CCO)c3)cc2N(C(=O)C2CC2)C[C@@H]1C` [Example I-342]: the IC50 at BRD4 BD1 was in the range of 1 to 10 µM; at BRD4 BD2, 0.05 to 0.5 µM.

Regarding `COc1ncccc1C(=O)N1C[C@H](C)N(C(C)=O)c2ccccc21` [Example I-758], the IC50 was > 10 µM at BRD4 BD1 and > 0.5 µM on BRD4 BD2.

For `CC(=O)N1c2ccc(-c3ccc(N(C)S(C)(=O)=O)cc3)cc2N(C(=O)c2ccco2)C[C@@H]1C` [Example I-492], the concentration for half-maximal inhibition (IC50) on BRD4 BD1 was 0.1 to 1 µM; at BRD4 BD2, < 0.05 µM.

As to `COC(=O)N1c2ccc(-c3cnn(CC4CCC4)c3)cc2N(C(=O)OC(C)C)C[C@@H]1C` [Example I-635], the half-inhibitory concentration (IC50) at BRD4 BD1 was 1 to 10 µM; at BRD4 BD2 it was > 0.5 µM.

Turning to `CC(=O)N1c2ccc(-c3cnn(CC(C)(C)O)c3)cc2N(C(=O)Oc2ccccn2)C[C@@H]1C` [Example I-1320], the IC50 at BRD4 BD1 is 1 to 10 µM; on BRD4 BD2, 0.05 to 0.5 µM.

`CC(=O)N1c2ccc(-c3ncc(N)s3)cc2N(C(=O)c2ccco2)C[C@@H]1C` [Example I-431]: the IC50 was > 10 µM at BRD4 BD1 and > 0.5 µM on BRD4 BD2.

In the case of `CC(=O)N1c2ccccc2N(C(=O)c2cc3ccccn3n2)C[C@@H]1C` [Example I-771], the concentration for half-maximal inhibition (IC50) is > 10 µM at BRD4 BD1 and > 0.5 µM at BRD4 BD2.

As for `COC(=O)N1c2ccc(-c3ccc(CS(N)(=O)=O)cc3)cc2N(C(=O)OC(C)C)C[C@@H]1C` [Example I-487], the IC50 on BRD4 BD1 is 0.1 to 1 µM; on BRD4 BD2 it was > 0.5 µM.

`CC(=O)N1c2ccccc2N(Cc2ccc(N(C)C)cc2)C[C@@H]1C` [Example I-891]: the IC50 at BRD4 BD1 is > 10 µM; at BRD4 BD2, > 0.5 µM.

As to `CC(=O)N1c2ccc(-c3cnn(C4CC4)c3)nc2N(C(=O)NC(C)C)C[C@@H]1C` [Example I-193, (S)-1-acetyl-6-(1-cyclopropyl-1H-pyrazol-4-yl)-N-isopropyl-2-methyl-2,3-dihydropyrido[2,3-b]pyrazine-4(1H)-carboxamide], the IC50 on BRD4 BD1 was > 10 µM; at BRD4 BD2 it was > 0.5 µM.

With `COc1ccc(OC(=O)N2C[C@H](C)N(C(C)=O)c3ccc(-c4cnn(C5CC5)c4)cc32)c(Cl)c1` [Example I-505], the IC50 at BRD4 BD1 lay in the range of 1 to 10 µM; on BRD4 BD2 it was 0.05 to 0.5 µM.

Consider `CC(=O)N1c2ccc(-c3cccc4[nH]ccc34)cc2N(C(=O)c2ccco2)CC1C` (centres unmarked) [Example I-846], for which the half-inhibitory concentration (IC50) on BRD4 BD1 lay within 1 to 10 µM; on BRD4 BD2 it was 0.05 to 0.5 µM.

As for `CC(=O)N1c2ccc(-c3ccc(F)cc3)cc2N(C(=O)c2ccco2)C[C@@H]1C` [Example I-818], the IC50 at BRD4 BD1 is 1 to 10 µM; at BRD4 BD2, < 0.05 µM.

Consider `COC(=O)N1c2ccc(-c3ccc(S(=O)(=O)CCN)cc3)cc2N(C(=O)OC(C)C)C[C@@H]1C` [Example I-488], for which the IC50 at BRD4 BD1 lay in the range of 0.1 to 1 µM; at BRD4 BD2, 0.05 to 0.5 µM.

As for `CC(=O)N1c2ccc(C(=O)N3CCCC3)cc2N(C(=O)c2ccco2)C[C@@H]1C` [Example I-101, (S)-1-(4-(furan-2-carbonyl)-2-methyl-6-(pyrrolidine-1-carbonyl)-3,4-dihydroquinoxalin-1(2H)-yl)ethanone], the half-maximal inhibitory concentration (IC50) at BRD4 BD1 is > 10 µM; at BRD4 BD2 it was > 0.5 µM.

As for `COC(=O)N1c2ccc(-c3ccc(C(=O)NCc4ncco4)cc3)cc2N(C(=O)OC(C)C)C[C@@H]1C` [Example I-583], the half-maximal inhibitory concentration (IC50) at BRD4 BD1 is 1 to 10 µM; at BRD4 BD2, > 0.5 µM.

As for `CC(=O)N1c2ccccc2N(C(=O)C2CCCCC2)C[C@@H]1C` [Example I-697], the figures for the concentration for half-maximal inhibition (IC50) on BRD4 BD1 and on BRD4 BD2 were > 10 µM and > 0.5 µM, respectively.

As to `CC(=O)N1c2ccc(-c3ccc(S(C)(=O)=O)cc3)cc2N(C(=O)Nc2cccc(C)c2)C[C@@H]1C` [Example I-971], the IC50 at BRD4 BD1 was > 10 µM; on BRD4 BD2, 0.05 to 0.5 µM.

Consider `COCC(=O)N1c2ccc(-c3ccc(S(C)(=O)=O)cc3)cc2N(C(=O)c2ccco2)C[C@@H]1C` [Example I-368], for which the IC50 on BRD4 BD1 is > 10 µM; at BRD4 BD2 it was > 0.5 µM.

With `CC(=O)N1c2ccc(NCc3ccccc3)cc2N(C(=O)c2ccco2)C[C@@H]1C` [Example I-989], the IC50 was 1 to 10 µM on BRD4 BD1 and 0.05 to 0.5 µM at BRD4 BD2.

Regarding `CC(=O)N1c2ccccc2N(C(=O)Cc2ccccc2)C[C@@H]1C` [Example I-695], the half-maximal inhibitory concentration (IC50) on BRD4 BD1 was > 10 µM; on BRD4 BD2, > 0.5 µM.

Turning to `CC(=O)N1c2ccccc2N(Cc2ccc(C)cc2)C[C@@H]1C` [Example I-895], the values for the half-inhibitory concentration (IC50) on BRD4 BD1 and at BRD4 BD2 were > 10 µM and > 0.5 µM, respectively.

With `CC(=O)N1c2ccccc2N(Cc2cccc(C)c2)C[C@@H]1C` [Example I-893], the values for the half-inhibitory concentration (IC50) on BRD4 BD1 and at BRD4 BD2 were > 10 µM and > 0.5 µM, respectively.

For the compound `CC(=O)N1c2ccc(-c3cnn(C4COC4)c3)cc2N(C(=O)OCC(C)(F)F)C[C@@H]1C` [Example I-68, (S)-2,2-difluoropropyl 4-acetyl-3-methyl-7-(1-(oxetan-3-yl)-1H-pyrazol-4-yl)-3,4-dihydroquinoxaline-1(2H)-carboxylate], the half-maximal inhibitory concentration (IC50) on BRD4 BD1 lay in the range of 0.1 to 1 µM; at BRD4 BD2 it was 0.05 to 0.5 µM.

`CC(=O)N1c2ccccc2N(S(=O)(=O)c2ccc(C)cc2)C[C@@H]1C` [Example I-940]: the IC50 on BRD4 BD1 was > 10 µM; at BRD4 BD2, > 0.5 µM.

In the case of `CC(=O)c1ccc(S(=O)(=O)N2C[C@H](C)N(C(C)=O)c3ccccc32)cc1` [Example I-957], the figures for the IC50 at BRD4 BD1 and at BRD4 BD2 were > 10 µM and > 0.5 µM, respectively.

Take `C[C@H]1CN(C(=O)c2ccco2)c2cc(-c3ccc(S(C)(=O)=O)cc3)ccc2N1C(=O)N(C)C` [Example I-369]: the results for the half-inhibitory concentration (IC50) at BRD4 BD1 and at BRD4 BD2 were > 10 µM and > 0.5 µM, respectively.

Take `CC(=O)N1c2ccc(-c3ccc(S(C)(=O)=O)cc3)cc2N(c2ncc3ccccc3n2)C[C@@H]1C` [Example I-48, (S)-1-(2-methyl-6-(4-(methylsulfonyl)phenyl)-4-(quinazolin-2-yl)-3,4-dihydroquinoxalin-1(2H)-yl)ethanone]: the IC50 on BRD4 BD1 fell in the range of 1 to 10 µM; on BRD4 BD2, 0.05 to 0.5 µM.

As for `CC(=O)N1c2ccccc2N(C(=O)COc2cccc3ccccc23)C[C@@H]1C` [Example I-736], the figures for the IC50 at BRD4 BD1 and at BRD4 BD2 were > 10 µM and > 0.5 µM, respectively.

For `CC(=O)N1c2ccc(-c3cccc(C#N)c3)cc2N(C(=O)c2ccco2)C[C@@H]1C` [Example I-812], the IC50 at BRD4 BD1 was 1 to 10 µM; at BRD4 BD2, < 0.05 µM.

For `COC(=O)N1c2ccc(-c3cnn(C4CNC4)c3)cc2N(C(=O)Oc2cccnc2)C[C@@H]1C` [Example I-1295], the half-inhibitory concentration (IC50) on BRD4 BD1 lay in the range of 1 to 10 µM; at BRD4 BD2 it was 0.05 to 0.5 µM.

`CC(=O)N1c2ccccc2N(S(=O)(=O)Cc2cccc(C#N)c2)C[C@@H]1C` [Example I-958]: the concentration for half-maximal inhibition (IC50) at BRD4 BD1 is > 10 µM; at BRD4 BD2 it was > 0.5 µM.

Turning to `COCCC(=O)N1C[C@H](C)N(C(C)=O)c2ccccc21` [Example I-700], the concentration for half-maximal inhibition (IC50) is > 10 µM at BRD4 BD1 and > 0.5 µM on BRD4 BD2.

The record behind these values is patent publication US10703764B2, “Benzopiperazine compositions as BET bromodomain inhibitors” (FORMA Therapeutics, Inc., priority 2013, dated 2020).
